Assay results published in patent EP2284541A1, “Fluorescence-based imaging and analysis of cells and cellular components using lipophilic dyes with improved specificity, spectral property and photostability” (Max-Planck-Gesellschaft zur Förderung der Wissenschaften …, priority 2009, dated 2011).
Several values for one entry are separate records, joined by “and”; a condition that tells them apart may be missing. Equal values may be shown once. Read-outs that look alike come from different tables or passages of the source.

How the values were obtained:
[1] = Comparative lipophilicity: log P by direct solvent partitioning, measured in the fluorometer; type: physicochemical; settings: for log P: average, dye 0.1 µg/ml; for Δlog P: LD540 versus Bodipy 493/503
Experimental: Dyes were dissolved in octanol-saturated water or oil-saturated methanol at a concentration of 0.1 μg/ml, measured in the fluorometer and shaken with an equal volume of water-saturated octanol or methanol-saturated oil for 20 min. Phases were separated by centrifugation. For octanol/water coefficients, the concentration of dye in the water phase was measured and used for calculations of log P. For the oil/methanol system, 10 μl samples of both phases were taken, diluted into 990 μl of isopropanol and measured in the fluorometer. The ratio was used for calculation of log p. Values obtained in the octanol/water system indicated higher lipophilicity of LD540. Since log P values larger 3 obtained by direct solvent partitioning are prone to errors, we also measured in the immiscible pair sunflower oil/methanol, where log p values for lipophilic substances are much smaller and less error prone. […] All values are average +/- […] values were determined by Students t-test.

[2] = Photobleaching of dyes in sunflower oil under constant illumination in a photometer cuvette; type: physicochemical; settings: 0.1 µg/ml in sunflower oil; constant irradiation at absorption maximum
Experimental: In a first experiment, the different dyes to be compared (LD540, Nile Red and Bodipy 493/503) were dissolved at 0.1 µg/ml in sunflower oil (which represents the cellular environment of the dyes) and constantly irradiated in a photometer cuvette at their respective absorption maximum. Excitation energy was equal for all three dyes. Every 15 seconds, fluorescence emission was recorded. […] The slope of the curves are directly proportional to the respective rate of photobleaching. Under these conditions, LD540 bleaches 3-times slower than Nile Red and 15-times slower than Bodipy 493/503.

[3] = Spectral characteristics (excitation and emission maxima) in various solvents and in stained cells, spectrofluorometer; type: physicochemical
Experimental: Spectra were measured on a Jobin Yvon Fluoromax3 spectrofluorometer at 3 x 10^-7 M. Differentiated 3T3-L1 cells were stained with 0.2 µg/ml LD540 in DMEM + 10% FCS for 30 min, followed by three washes. Cells were trypsinized, suspended at 100.000 cells/ml in PBS and measured in a fluorescence cuvette.
^#Note that the excitation maximum fits to the one reported in U.S. Patent No. 5,446,157, while the emission maximum in said reference was indicated to be 560 nm.

[4] = reported in U.S. Patent No. 5,446,157; cited from earlier work
[5] = Spectral characteristics (excitation and emission maxima) in various solvents and in stained cells, spectrofluorometer; type: physicochemical; settings: Ethanol, 2 x 10^-4 M
[6] = Oil/methanol (sunflower oil), n = 3
[7] = 3T3-L1 cells stained with 0.2 µg/ml LD540, suspended in PBS

Row | SMILES | log P ([1]; Octanol/water, n = 7) | log P [1, 6] | bleaching, times slower than Nile Red [2] | Λ max exc [3, 7] | λ max em [3, 7] | Λ max exc ([3]; Ethanol, 3 x 10^-7 M) [nm] | λ max em ([3]; Ethanol, 3 x 10^-7 M) [nm] | Λ max exc ([3]; Hexane, 3 x 10^-7 M) [nm] | λ max em ([3]; Hexane, 3 x 10^-7 M) [nm] | Λ max exc ([3]; Sunflower oil, 3 x 10^-7 M) [nm] | λ max em ([3]; Sunflower oil, 3 x 10^-7 M) [nm] | Λ max exc ([3]; Water, 3 x 10^-7 M) [nm] | λ max em ([3]; Water, 3 x 10^-7 M) [nm] | emission maximum [4] [nm] | excitation maximum [4] [nm] | emission maximum ([5]; 1 mm cuvette) [nm] | emission maximum ([5]; 4 mm cuvette) [nm] | Δlog P ([1]; Octanol/water) | Δlog P ([1]; Oil/methanol)
1 | CC1=CC(C)=[N+]2C1=C(C)c1c(C)cc(C)n1[B-]2(F)F [Bodipy 493/503, reference compound] | 3.50 | 0.31 |  |  |  |  |  |  |  |  |  |  |  |  |  |  |  |  | 
2 | CC1=C2C=C3CCCCC3=[N+]2[B-](F)(F)n2c1cc1c2CCCC1 [LD540] | 4.38 | 0.75 | 3 | 540 nm and 540.2 nm | 545 nm and 545.0 nm | 536.0 | 542.5 | 539.7 | 542.2 | 540.2 | 545.2 | 534.8 | 542.4 | 560 | 535 | 550 | 557 | 0.88 | 0.44
